Measured values as given in the NIST ThermoML archive (doi:10.1021/je060271a).
Several values for one entry are separate records, joined by “and”; a condition that tells them apart may be missing. Equal entries are not always repeated.

Conditions: 283.15 K, Liquid, Vibrating tube method

CCCCCC(=O)OCC(COC(=O)CCCCC)(COC(=O)CCCCC)COC(=O)CCCCC [pentaerythritol tetrahexanoate]
Conditions | mass density
147.5 kPa | 1004.2 kg/m3
147.8 kPa | 1004.2 kg/m3
148.2 kPa | 1004.2 kg/m3
148.7 kPa | 1004.3 kg/m3
150.5 kPa | 1004.1 kg/m3
150.8 kPa | 1004.2 kg/m3
151.3 kPa | 1004.3 kg/m3
151.5 kPa | 1004.3 kg/m3
151.7 kPa | 1004.3 kg/m3
152.4 kPa | 1004.2 kg/m3
152.7 kPa | 1004.2 kg/m3
153.2 kPa | 1004.2 kg/m3
153.4 kPa | 1004.2 kg/m3
153.7 kPa | 1004.4 kg/m3
154.1 kPa | 1004.3 kg/m3
154.3 kPa | 1004.2 kg/m3
154.6 kPa | 1004.1 kg/m3 and 1004.2 kg/m3
155.1 kPa | 1004.3 kg/m3
155.7 kPa | 1004.2 kg/m3
156.4 kPa | 1004.2 kg/m3
156.5 kPa | 1004.1 kg/m3 and 1004.2 kg/m3
157.2 kPa | 1004.3 kg/m3
157.6 kPa | 1004.2 kg/m3
157.7 kPa | 1004.2 kg/m3
157.9 kPa | 1004.3 kg/m3
160.5 kPa | 1004.2 kg/m3
161 kPa | 1004.2 kg/m3
161.4 kPa | 1004.2 kg/m3
161.6 kPa | 1004.3 kg/m3
162.3 kPa | 1004.3 kg/m3
162.4 kPa | 1004.1 kg/m3
163 kPa | 1004.2 kg/m3
163.1 kPa | 1004.3 kg/m3
163.8 kPa | 1004.3 kg/m3
164.2 kPa | 1004.3 kg/m3
164.5 kPa | 1004.2 kg/m3
164.7 kPa | 1004.3 kg/m3
165.2 kPa | 1004.2 kg/m3
165.7 kPa | 1004.3 kg/m3
166.4 kPa | 1004.1 kg/m3
166.8 kPa | 1004.3 kg/m3
166.9 kPa | 1004.3 kg/m3
167.5 kPa | 1004.2 kg/m3
168.2 kPa | 1004.2 kg/m3
169.7 kPa | 1004.2 kg/m3
173.5 kPa | 1004.2 kg/m3
174.1 kPa | 1004.2 kg/m3
174.8 kPa | 1004.1 kg/m3
175.1 kPa | 1004.3 kg/m3
175.4 kPa | 1004.2 kg/m3
177 kPa | 1004.2 kg/m3
177.9 kPa | 1004.2 kg/m3
178 kPa | 1004.2 kg/m3
178.4 kPa | 1004.1 kg/m3
178.9 kPa | 1004.2 kg/m3
179.4 kPa | 1004.2 kg/m3
179.6 kPa | 1004.2 kg/m3
179.8 kPa | 1004.2 kg/m3
180.3 kPa | 1004.3 kg/m3
181 kPa | 1004.2 kg/m3
181.4 kPa | 1004.2 kg/m3
181.9 kPa | 1004.3 kg/m3
182.2 kPa | 1004.2 kg/m3
182.9 kPa | 1004.3 kg/m3
184.1 kPa | 1004.3 kg/m3
185 kPa | 1004.3 kg/m3
185.3 kPa | 1004.2 kg/m3
185.7 kPa | 1004.2 kg/m3
186 kPa | 1004.3 kg/m3
186.4 kPa | 1004.2 kg/m3
187.1 kPa | 1004.2 kg/m3
187.6 kPa | 1004.3 kg/m3
